Experimental data as given in ChEMBL document CHEMBL4387742, “Naturally occurring biflavonoids with amyloid β aggregation inhibitory activity for development of anti-Alzheimer agents” (Bioorg Med Chem Lett, 2019).
pIC50: −log10 of the molar value.

What was measured:
[1] = target: T1, Amyloid-beta precursor protein (Homo sapiens, UniProt P05067); experiment: Inhibition of human amyloid beta (1 to 40) assessed as reduction in aggregation measured after 24 hrs by ThT fluorescence assay
[2] = target: T1, Amyloid-beta precursor protein; experiment: Inhibition of amyloid beta (1 to 42) (unknown origin) assessed as reduction in aggregation at 50 uM by ThT fluorescence assay

T1 sequence (P05067 whole entry): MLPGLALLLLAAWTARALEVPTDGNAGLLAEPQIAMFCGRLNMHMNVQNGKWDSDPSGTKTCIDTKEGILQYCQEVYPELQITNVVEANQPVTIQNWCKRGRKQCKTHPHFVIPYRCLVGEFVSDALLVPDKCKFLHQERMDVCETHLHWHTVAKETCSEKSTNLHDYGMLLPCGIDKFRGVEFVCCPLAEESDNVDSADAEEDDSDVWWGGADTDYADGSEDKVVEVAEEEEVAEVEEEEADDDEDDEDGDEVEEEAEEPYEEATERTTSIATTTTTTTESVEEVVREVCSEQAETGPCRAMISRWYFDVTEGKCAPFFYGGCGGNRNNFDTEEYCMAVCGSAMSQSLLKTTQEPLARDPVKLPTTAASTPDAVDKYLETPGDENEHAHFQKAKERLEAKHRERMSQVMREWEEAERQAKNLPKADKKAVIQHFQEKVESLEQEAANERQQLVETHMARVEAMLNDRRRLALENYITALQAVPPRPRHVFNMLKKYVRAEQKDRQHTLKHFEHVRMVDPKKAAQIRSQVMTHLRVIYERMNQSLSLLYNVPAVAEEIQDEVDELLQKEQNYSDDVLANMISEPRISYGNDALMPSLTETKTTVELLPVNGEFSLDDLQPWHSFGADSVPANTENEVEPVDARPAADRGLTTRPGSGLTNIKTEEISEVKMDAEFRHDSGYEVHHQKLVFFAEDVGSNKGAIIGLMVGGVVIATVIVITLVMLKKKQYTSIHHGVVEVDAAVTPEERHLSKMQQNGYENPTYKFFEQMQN

SMILES	pIC50 [1]	inhibition [2] [%]
COc1ccc(-c2cc(=O)c3c(O)cc(OC)c(-c4cc(-c5cc(=O)c6c(O)cc(O)cc6o5)ccc4OC)c3o2)cc1 [KAYAFLAVONE]	< 4.30	–
COc1ccc(-c2cc(=O)c3c(O)cc(OC)c(-c4cc(-c5cc(=O)c6c(O)cc(OC)cc6o5)ccc4OC)c3o2)cc1	< 4.30	–
COc1cc2oc(-c3ccc(O)cc3)cc(=O)c2c(O)c1-c1c(O)cc(O)c2c(=O)cc(-c3ccc(O)cc3)oc12	4.89	–
COc1cc(O)c2c(=O)cc(-c3ccc(O)cc3)oc2c1-c1cc(-c2cc(=O)c3c(O)cc(O)cc3o2)ccc1O [SOTETSUFLAVONE]	< 4.30	–
COc1ccc(-c2cc(=O)c3c(O)c(Oc4ccc(-c5cc(=O)c6c(O)cc(O)cc6o5)cc4)c(OC)cc3o2)cc1	< 4.30	–
COc1ccc(-c2cc(=O)c3c(O)cc(OC)c(-c4cc(-c5cc(=O)c6c(O)cc(OC)cc6o5)ccc4O)c3o2)cc1 [HEVEAFLAVONE]	< 4.30	–
O=c1cc(-c2ccc(Oc3c(O)cc4oc(-c5ccc(O)cc5)cc(=O)c4c3O)cc2)oc2cc(O)cc(O)c12 [HINOKIFLAVONE]	5.02	–
COc1cc2oc(-c3ccc(O)cc3)cc(=O)c2c(O)c1-c1c(OC)cc(O)c2c(=O)cc(-c3ccc(O)cc3)oc12	4.48	–
COc1ccc(-c2cc(=O)c3c(O)cc(O)c(-c4cc(-c5cc(=O)c6c(O)cc(O)cc6o5)ccc4O)c3o2)cc1 [PODOCARPUSFLAVONE A]	5.31	–
COc1ccc(-c2cc(=O)c3c(O)cc(O)c(-c4c(OC)cc5oc(-c6ccc(O)cc6)cc(=O)c5c4O)c3o2)cc1	4.80	–
COc1cc2oc(-c3ccc(O)cc3)cc(=O)c2c(O)c1-c1cc(-c2cc(=O)c3c(O)cc(O)cc3o2)ccc1O	4.67	–
O=c1cc(-c2ccc(O)c(-c3c(O)cc(O)c4c(=O)cc(-c5ccc(O)cc5)oc34)c2)oc2cc(O)cc(O)c12 [AMENTOFLAVONE]	5.32	–
COc1cc(O)c2c(=O)cc(-c3ccc(O)cc3)oc2c1-c1c(OC)cc(O)c2c(=O)cc(-c3ccc(O)cc3)oc12	4.76	–
COc1ccc(-c2cc(=O)c3c(O)cc(O)cc3o2)cc1-c1c(O)cc(O)c2c(=O)cc(-c3ccc(O)cc3)oc12 [BILOBETIN]	5.33	–
COc1ccc(-c2cc(=O)c3c(O)cc(O)c(-c4cc(-c5cc(=O)c6c(O)cc(O)cc6o5)ccc4OC)c3o2)cc1 [ISOGINKGETIN]	5.00	–
COc1ccc(-c2cc(=O)c3c(O)cc(O)cc3o2)cc1-c1c(OC)cc(O)c2c(=O)cc(-c3ccc(O)cc3)oc12	< 4.30	–
COc1ccc(-c2cc(=O)c3c(O)cc(OC)c(-c4c(OC)cc(O)c5c(=O)cc(-c6ccc(O)cc6)oc45)c3o2)cc1	4.34	–
COc1ccc(-c2cc(=O)c3c(O)cc(OC)c(-c4cc(-c5cc(=O)c6c(O)cc(O)cc6o5)ccc4O)c3o2)cc1 [7'',4'''-dimethylamentoflavone]	4.70	–
COc1ccc(-c2cc(=O)c3c(O)cc(OC)c(-c4c(OC)cc5oc(-c6ccc(O)cc6)cc(=O)c5c4O)c3o2)cc1	< 4.30	–
O=c1cc(-c2ccc(O)cc2)oc2cc(O)cc(O)c12 [APIGENIN]	< 4.30	–
COc1ccc(-c2cc(=O)c3c(O)c(Oc4ccc(-c5cc(=O)c6c(O)cc(O)cc6o5)cc4)c(O)cc3o2)cc1	< 4.30	–
COc1ccc(-c2cc(=O)c3c(O)cc(O)c(-c4cc(-c5cc(=O)c6c(O)cc(OC)cc6o5)ccc4OC)c3o2)cc1 [SCIADOPITISIN]	< 4.30	44
COc1cc2oc(-c3ccc(O)cc3)cc(=O)c2c(O)c1Oc1ccc(-c2cc(=O)c3c(O)cc(O)cc3o2)cc1	< 4.30	–
COc1ccc(-c2cc(=O)c3c(O)cc(O)cc3o2)cc1-c1c(O)cc2oc(-c3ccc(O)cc3)cc(=O)c2c1O	< 4.30	–
COc1cc(O)c2c(=O)cc(-c3ccc(OC)c(-c4c(O)cc(O)c5c(=O)cc(-c6ccc(O)cc6)oc45)c3)oc2c1 [GINKGETIN]	4.88	–
COc1cc(O)c2c(=O)cc(-c3ccc(OC)c(-c4c(OC)cc(O)c5c(=O)cc(-c6ccc(O)cc6)oc45)c3)oc2c1	< 4.30	–
COc1ccc(-c2cc(=O)c3c(O)cc(OC)c(-c4c(OC)cc(O)c5c(=O)cc(-c6ccc(OC)cc6)oc45)c3o2)cc1	< 4.30	–
COc1cc(O)c2c(=O)cc(-c3ccc(O)c(-c4c(O)cc(O)c5c(=O)cc(-c6ccc(O)cc6)oc45)c3)oc2c1 [SEQUOIAFLAVONE]	5.31	–
